Results taken from PubChem BioAssay (NCI).
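Five concentrations, 48 hours, 96-well plates. The concentration for 50% growth inhibition is given as GI50. Definition used: TGI = concentration required for complete inhibition of growth.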

Legend:
Assay in all cases: growth of human tumour cells (NCI), 48 h
SNB-75 CNS = tested on: SNB-75 CNS
DU-145 prostate = tested on: DU-145 prostate
SF-539 CNS = tested on: SF-539 CNS
786-0 renal = tested on: 786-0 renal
HCT-116 colon = tested on: HCT-116 colon
HOP-62 NSCLC = tested on: HOP-62 NSCLC
A549 NSCLC = tested on: A549 NSCLC
SR leukemia = tested on: SR leukemia
NCI/ADR-RES ovarian = tested on: NCI/ADR-RES ovarian
UO-31 renal = tested on: UO-31 renal
OVCAR-5 ovarian = tested on: OVCAR-5 ovarian
SK-MEL-5 melanoma = tested on: SK-MEL-5 melanoma
SN12C renal = tested on: SN12C renal
EKVX NSCLC = tested on: EKVX NSCLC
SW-620 colon = tested on: SW-620 colon
MOLT-4 leukemia = tested on: MOLT-4 leukemia
M14 melanoma = tested on: M14 melanoma
A498 renal = tested on: A498 renal
SK-OV-3 ovarian = tested on: SK-OV-3 ovarian
OVCAR-8 ovarian = tested on: OVCAR-8 ovarian
NCI-H23 lung = tested on: NCI-H23 lung
PC-3 prostate = tested on: PC-3 prostate
SK-MEL-2 melanoma = tested on: SK-MEL-2 melanoma
RPMI-8226 leukemia = tested on: RPMI-8226 leukemia
NCI-H522 lung = tested on: NCI-H522 lung
HS 578T breast = tested on: HS 578T breast
SF-268 CNS = tested on: SF-268 CNS
COLO 205 colon = tested on: COLO 205 colon
OVCAR-3 ovarian = tested on: OVCAR-3 ovarian
MDA-MB-435 = tested on: MDA-MB-435
NCI-H460 lung = tested on: NCI-H460 lung
T-47D breast = tested on: T-47D breast
HT29 colon = tested on: HT29 colon
SK-MEL-28 melanoma = tested on: SK-MEL-28 melanoma
HL-60(TB) leukemia = tested on: HL-60(TB) leukemia
IGROV1 ovarian = tested on: IGROV1 ovarian
ACHN renal = tested on: ACHN renal
RXF 393 renal = tested on: RXF 393 renal
HCT-15 colon = tested on: HCT-15 colon
CCRF-CEM leukemia = tested on: CCRF-CEM leukemia
MALME-3M melanoma = tested on: MALME-3M melanoma
BT-549 breast = tested on: BT-549 breast
U251 CNS = tested on: U251 CNS
SF-295 CNS = tested on: SF-295 CNS
UACC-257 melanoma = tested on: UACC-257 melanoma
UACC-62 melanoma = tested on: UACC-62 melanoma
MDA-MB-231 breast = tested on: MDA-MB-231 breast
OVCAR-4 ovarian = tested on: OVCAR-4 ovarian
NCI-H226 lung = tested on: NCI-H226 lung
KM12 colon = tested on: KM12 colon
LOX IMVI melanoma = tested on: LOX IMVI melanoma
HCC-2998 colon = tested on: HCC-2998 colon
K-562 leukemia = tested on: K-562 leukemia
CAKI-1 renal = tested on: CAKI-1 renal
MCF7 breast = tested on: MCF7 breast
SNB-19 CNS = tested on: SNB-19 CNS
HOP-92 NSCLC = tested on: HOP-92 NSCLC

C#Cc1cccc(Nc2nc3ccc([N+](=O)[O-])cc3nc2Nc2cccc(C#C)c2)c1
GI50 (SNB-75 CNS): 175 nM
TGI (SNB-75 CNS): 653 nM
GI50 (DU-145 prostate): 367 nM
TGI (DU-145 prostate): 1470 nM
GI50 (SF-539 CNS): 247 nM
TGI (SF-539 CNS): 738 nM
GI50 (786-0 renal): 226 nM
TGI (786-0 renal): 730 nM
GI50 (HCT-116 colon): 214 nM
TGI (HCT-116 colon): 715 nM
GI50 (HOP-62 NSCLC): 188 nM
TGI (HOP-62 NSCLC): 476 nM
GI50 (A549 NSCLC): 212 nM
TGI (A549 NSCLC): 1120 nM
GI50 (SR leukemia): 318 nM
TGI (SR leukemia): 1300 nM
GI50 (NCI/ADR-RES ovarian): 284 nM
TGI (NCI/ADR-RES ovarian): 1100 nM
GI50 (UO-31 renal): 321 nM
TGI (UO-31 renal): 1140 nM
GI50 (OVCAR-5 ovarian): 338 nM
TGI (OVCAR-5 ovarian): 1350 nM
GI50 (SK-MEL-5 melanoma): 181 nM
TGI (SK-MEL-5 melanoma): 349 nM
GI50 (SN12C renal): 313 nM
TGI (SN12C renal): 1290 nM
GI50 (EKVX NSCLC): 249 nM
TGI (EKVX NSCLC): 987 nM
GI50 (SW-620 colon): 291 nM
TGI (SW-620 colon): 1090 nM
GI50 (MOLT-4 leukemia): 247 nM
TGI (MOLT-4 leukemia): 1020 nM
GI50 (M14 melanoma): 199 nM
TGI (M14 melanoma): 495 nM
GI50 (A498 renal): 227 nM
TGI (A498 renal): 783 nM
GI50 (SK-OV-3 ovarian): 257 nM
TGI (SK-OV-3 ovarian): 862 nM
GI50 (OVCAR-8 ovarian): 303 nM
TGI (OVCAR-8 ovarian): 1460 nM
GI50 (NCI-H23 lung): 265 nM
TGI (NCI-H23 lung): 911 nM
GI50 (PC-3 prostate): 220 nM
TGI (PC-3 prostate): 1170 nM
GI50 (SK-MEL-2 melanoma): 260 nM
TGI (SK-MEL-2 melanoma): 742 nM
GI50 (RPMI-8226 leukemia): 218 nM
TGI (RPMI-8226 leukemia): 998 nM
GI50 (NCI-H522 lung): 209 nM
TGI (NCI-H522 lung): 609 nM
GI50 (HS 578T breast): 322 nM
TGI (HS 578T breast): 1720 nM
GI50 (SF-268 CNS): 313 nM
TGI (SF-268 CNS): 1300 nM
GI50 (COLO 205 colon): 172 nM
TGI (COLO 205 colon): 345 nM
GI50 (OVCAR-3 ovarian): 193 nM
TGI (OVCAR-3 ovarian): 670 nM
GI50 (MDA-MB-435): 265 nM
TGI (MDA-MB-435): 838 nM
GI50 (NCI-H460 lung): 209 nM
TGI (NCI-H460 lung): 899 nM
GI50 (T-47D breast): 259 nM
TGI (T-47D breast): 889 nM
GI50 (HT29 colon): 229 nM
TGI (HT29 colon): 562 nM
GI50 (SK-MEL-28 melanoma): 354 nM
TGI (SK-MEL-28 melanoma): 1170 nM
GI50 (HL-60(TB) leukemia): 299 nM
TGI (HL-60(TB) leukemia): 788 nM
GI50 (IGROV1 ovarian): 354 nM
TGI (IGROV1 ovarian): 1300 nM
GI50 (ACHN renal): 293 nM
TGI (ACHN renal): 1160 nM
GI50 (RXF 393 renal): 227 nM
TGI (RXF 393 renal): 618 nM
GI50 (HCT-15 colon): 197 nM
TGI (HCT-15 colon): 716 nM
GI50 (CCRF-CEM leukemia): 209 nM
TGI (CCRF-CEM leukemia): 1030 nM
GI50 (MALME-3M melanoma): 235 nM
TGI (MALME-3M melanoma): 614 nM
GI50 (BT-549 breast): 294 nM
TGI (BT-549 breast): 1200 nM
GI50 (U251 CNS): 180 nM
TGI (U251 CNS): 482 nM
GI50 (SF-295 CNS): 172 nM
TGI (SF-295 CNS): 416 nM
GI50 (UACC-257 melanoma): 207 nM
TGI (UACC-257 melanoma): 602 nM
GI50 (UACC-62 melanoma): 302 nM
TGI (UACC-62 melanoma): 1200 nM
GI50 (MDA-MB-231 breast): 281 nM
TGI (MDA-MB-231 breast): 807 nM
GI50 (OVCAR-4 ovarian): 218 nM
TGI (OVCAR-4 ovarian): 982 nM
GI50 (NCI-H226 lung): 251 nM
TGI (NCI-H226 lung): 1200 nM
GI50 (KM12 colon): 299 nM
TGI (KM12 colon): 1030 nM
GI50 (LOX IMVI melanoma): 172 nM
TGI (LOX IMVI melanoma): 328 nM
GI50 (HCC-2998 colon): 341 nM
TGI (HCC-2998 colon): 1270 nM
GI50 (K-562 leukemia): 216 nM
TGI (K-562 leukemia): 700 nM
GI50 (CAKI-1 renal): 297 nM
TGI (CAKI-1 renal): 994 nM
GI50 (MCF7 breast): 266 nM
TGI (MCF7 breast): 1070 nM
GI50 (SNB-19 CNS): 361 nM
TGI (SNB-19 CNS): 1840 nM
GI50 (HOP-92 NSCLC): 191 nM
TGI (HOP-92 NSCLC): 704 nM
